Source: PubChem BioAssay (NCI)
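96-well plates; 48 h exposure; 5 concentrations. Endpoints by linear interpolation between flanking doses. Not reached: highest tested concentration assigned. Here, GI50 denotes the concentration required for 50% inhibition of growth. At the TGI there is no net growth.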

Columns and labels:
Experiment in all cases: growth of human tumour cells (NCI), 48 h
BT-549 breast = system: BT-549 breast
HS 578T breast = system: HS 578T breast
MDA-N = system: MDA-N
DLD-1 colon = system: DLD-1 colon
KM20L2 colon = system: KM20L2 colon
LXFL 529 NSCLC = system: LXFL 529 NSCLC
RXF-631 renal = system: RXF-631 renal
SNB-78 CNS = system: SNB-78 CNS
M19-MEL melanoma = system: M19-MEL melanoma
NCI/ADR-RES ovarian = system: NCI/ADR-RES ovarian

Row | Compound | TGI (BT-549 breast) [µM] | TGI (HS 578T breast) [µM] | TGI (MDA-N) [µM] | TGI (DLD-1 colon) [µM] | TGI (KM20L2 colon) [µM] | TGI (LXFL 529 NSCLC) [µM] | TGI (SNB-78 CNS) [µM] | TGI (M19-MEL melanoma) [µM] | TGI (NCI/ADR-RES ovarian) [µM] | other results
1 | CC(CO)[C@H]1OC(=O)C=C2[C@@]13O[C@@H]3[C@H]1OC(=O)[C@@]3(C)[C@H]4O[C@H]4C[C@@]2(C)[C@@H]13 (some centres undefined) | 8.2 | 12.6 | 14 |  |  |  |  |  |  | 
2 | CCc1ccccc1NC(=O)C(=O)C(C(=O)c1ccc(OC)cc1)c1ccc(OC)cc1 (centres undefined) |  |  |  | > 100 | > 100 | > 100 | > 100 |  |  | TGI (RXF-631 renal): > 100 µM
3 | Cc1cc([N+](=O)[O-])c(C)c2c1[nH]c1ccc(/C(CCC3CCCC3)=N\N)cc12 |  |  |  |  |  |  | > 100 | 37.2 |  | 
4 | O=C(O)c1cc[c]([Hg][S]c2ncnc3nc[nH]c23)cc1 | 21.6 | 6.06 | 20.3 |  |  |  |  |  | 30.6 | GI50 (BT-549 breast): 8.12 µM; GI50 (HS 578T breast): 1.5 µM; GI50 (MDA-N): 4.84 µM; GI50 (NCI/ADR-RES ovarian): 3.75 µM
5 | Clc1ccc([O][In]([O]c2ccc(Cl)cn2)[O]c2ccc(Cl)cn2)nc1 |  |  |  | > 100 | > 100 |  | > 100 | > 100 |  | GI50 (DLD-1 colon): > 100 µM; GI50 (KM20L2 colon): > 100 µM; GI50 (M19-MEL melanoma): > 100 µM; GI50 (SNB-78 CNS): > 100 µM
6 | N#CC(C#N)SCc1ccccc1 |  | 98.3 |  | > 100 | 63.4 | > 100 | > 91.7 | > 100 | > 100 | 
7 | COc1cc2nncc(Sc3cnnc4ccccc34)c2cc1OC |  |  |  | 49.6 | 68.3 | > 100 | 92.4 | > 100 |  | TGI (RXF-631 renal): 53.6 µM
8 | CC1(C)C(=O)C(O)=CC2C1=CCC1C2(C)C(=O)CC2(C)C(C(C)(O)C(=O)CC(O)C(C)(C)O)C(O)CC12C (centres undefined) |  |  |  | > 74.6 | 42.4 | 17.4 | 25.9 | > 97.2 |  | 
9 | CCC1(Br)C(=O)NC(=O)N(C2CC(O)C(CO)O2)C1N=[N+]=[N-] (centres undefined) |  |  |  | > 100 | > 100 | > 100 | > 100 | > 100 |  | 
10 | CC(=O)c1cccc(N(/C=C/C(=O)C(F)(F)F)CC(=O)c2ccc(Cl)cc2)c1 | > 100 | > 100 |  |  |  |  |  |  | > 100 | GI50 (BT-549 breast): > 100 µM; GI50 (HS 578T breast): > 100 µM; GI50 (NCI/ADR-RES ovarian): > 100 µM
11 | CC(C)(C)OC(=O)NCC(C#N)CNC(=O)OC(C)(C)C | > 100 | > 100 |  |  |  |  |  |  | > 100 | 
12 | O=[N+]([O-])c1ccc(N=Nc2c(O)[nH]c3ccc([N+](=O)[O-])cc23)cc1 |  |  |  | > 100 | 63.7 | 26.4 |  | 36.9 |  | TGI (RXF-631 renal): 62.7 µM
13 | CSc1ccc(C2=Nn3c(nnc3-c3ccc(F)c(Cl)c3)SC2)cc1 | 50.5 | 36.6 |  |  |  |  |  |  | 22.6 | GI50 (BT-549 breast): 12.8 µM; GI50 (HS 578T breast): 10 µM; GI50 (NCI/ADR-RES ovarian): 5.17 µM
14 | CC1=C(C(=O)NC2CCCCC2)CC(C(=O)NC2CCCCC2)=C(C)N1 | > 100 | > 100 | > 100 |  |  |  |  |  |  | 
15 | CC1(C)N=C(N)N=C(N)N1c1ccc(CCc2ccccc2)c(Cl)c1 | 12.5 | 27.2 |  |  |  |  |  |  | > 100 | GI50 (BT-549 breast): 1.11 µM; GI50 (HS 578T breast): 3.7 µM; GI50 (NCI/ADR-RES ovarian): 37 µM
16 | CC1(C)CCC(C)(C)c2cc(C(=O)Nc3ccc(C(=O)O)cc3)ccc21 | 73 | > 46.8 | > 62.8 |  |  |  |  |  | 47.3 | 
17 | COC(=O)c1ccc2c(c1)C(NC(C)=O)CCc1cc(OC)c(OC)c(OC)c1-2 (centres undefined) | 78.3 | 7.78 | < 0.01 | > 100 | < 0.01 | > 100 | > 4.64 | > 100 | 3.71 | TGI (RXF-631 renal): > 6.91 µM
18 | C=C1C(=O)O[C@@H]2C[C@@]3(C)CC(=O)C=C(C)[C@@H]3C[C@H]12 | 27.6 | 99.7 | 17.2 |  |  |  |  |  | 40.4 | 
19 | Cc1ccc(C(=O)Nc2ccc(CN3CCN(C)CC3)c(C(F)(F)F)c2)cc1C#Cc1cnc(N)c2ccc(F)cc12 | 4.33 | 1.37 |  |  |  |  |  |  | 2.09 | GI50 (BT-549 breast): 1.31 µM; GI50 (HS 578T breast): 0.301 µM; GI50 (NCI/ADR-RES ovarian): 0.436 µM
20 | CC(C)N(C(C)C)[PH+]1O[PH+](N(C(C)C)C(C)C)O[PH+](N(C(C)C)C(C)C)O[PH+](N(C(C)C)C(C)C)O[PH+](N(C(C)C)C(C)C)O1.[C-]#[O+].[C-]#[O+].[C-]#[O+].[C-]#[O+].[C-]#[O+].[C-]#[O+].[C-]#[O+].[Cr].[Cr] (centres undefined) |  |  |  | > 100 | > 100 | > 100 | > 100 | > 100 |  | GI50 (DLD-1 colon): > 100 µM; GI50 (KM20L2 colon): > 100 µM; GI50 (LXFL 529 NSCLC): > 100 µM; GI50 (M19-MEL melanoma): > 100 µM; GI50 (SNB-78 CNS): > 100 µM
21 | O=C(C(=O)c1ccc(Cc2ccc(C(=O)C(=O)c3ccccc3)cc2)cc1)c1ccccc1 |  |  |  | > 100 | > 100 | > 100 | > 100 | > 100 |  | TGI (RXF-631 renal): > 100 µM
22 | C[C@]12CC[C@@H]3c4ccc(O)c([N+](=O)[O-])c4CC[C@H]3[C@@H]1CC[C@@H]2NS(=O)(=O)c1ccc(C(F)(F)F)cc1 | 3.03 | 6.56 |  |  |  |  |  |  | 4.7 | GI50 (BT-549 breast): 1.57 µM; GI50 (HS 578T breast): 2.14 µM; GI50 (NCI/ADR-RES ovarian): 1.95 µM
23 | C#C[C@]1(O)CC[C@H]2[C@@H]3CC=C4c5nc(Nc6ccccn6)sc5CC[C@]4(C)[C@H]3CC[C@@]21C | 2.82 | 2.4 |  |  |  |  |  |  | 6.1 | GI50 (BT-549 breast): 0.692 µM; GI50 (HS 578T breast): 0.421 µM; GI50 (NCI/ADR-RES ovarian): 1.72 µM
24 | COc1ccc(C2SC(N)=Nc3c2c(C)nn3C(=O)c2ccc(Cl)cc2)cc1OC (centres undefined) | > 10 | > 10 | > 10 |  |  |  |  |  | > 10 | 
25 | CSc1nc2c(c(O)c(C)c(=O)n2C2OC(COC(C)=O)C(OC(C)=O)C(OC(C)=O)C2OC(C)=O)c(=O)n1C (centres undefined) |  |  |  | > 100 | > 100 | > 100 | > 100 |  |  | TGI (RXF-631 renal): > 100 µM
26 | COC1/C=C/OC2(C)Oc3c(C)c(O)c4c(c3C2=O)C(=O)C=C(NC(=O)/C(C)=C\C=C\C(C)C(OC=O)C(C)C(O)C(C)C(OC(C)=O)C1C)C4=O (centres undefined) | 24 | 44.9 | > 50.7 | 23.3 | 35.2 | 19 | 44.2 | 27.6 | 49.2 | TGI (RXF-631 renal): 35.7 µM
